What was measured:
[1] = Free and bound catechins: binding to lecithin (centrifugation, HPLC); details: for binding to the lecithin (in words): green tea samples with lecithin 0.05, 0.1, 0.15%
Description: Phosphate buffer was added to each sample to give a final concentration of 20 mM at pH 6.0 before they were pre-homogenized with an Ultraturrax at full speed. The dispersions were flushed with nitrogen for 5 minutes and then green tea extract was added for a final concentration of 0.2%. After gentle stirring for 15 min the mixes were finally homogenized with a Microfluidizer processor (Microfluidics, Newton, Mass., USA) with 1 run at 250 bar. […] The homogenized dispersions were filled into 1 lt glass bottles and were sterilized (30 sec at 80° C.) in a water bath heated with steam. Green tea catechins were analysed in the fresh and stored samples by HPLC on a C-18 column, using UV detection at 280 nm. For total catechin determination samples were treated with concentrated acetic acid and the extracts were stabilised with ascorbic acid, EDTA and acetonitrile. For free catechin determination each sample was previously spun at 14,000×g for 30 min using an Eppendorf (Dr Vaudaux A G, Binningen, C H) centrifuge 5415. The resulting supernatant was then treated as previously described. Stability and binding to phospholipids were calculated for (-)-epigallocatechin (Egc), (-)-epigallocatechin-3-gallate (Egcg), and caffeine.

[2] = Stability of green tea catechins during storage at room temperature (HPLC); type: physicochemical; details: for catechins (% recovered): room temperature, pH 6.0
Description: Soya lecithin was dispersed in distilled water to yield different concentrations (0.05%; 0.1% and 0.2%) by stirring the mixes at 37° C. for 2 h. Phosphate buffer was added to each sample to give a final concentration of 20 mM at pH 6.0 before they were pre-homogenized with an Ultraturrax at full speed. The dispersions were flushed with nitrogen for 5 minutes and then green tea extract was added for a final concentration of 0.2%. After gentle stirring for 15 min the mixes were finally homogenized with a Microfluidizer processor (Microfluidics, Newton, Mass., USA) with 1 run at 250 bar. The same protocol was followed for preparing the green tea control except that no lecithin was added. The homogenized dispersions were filled into 1 lt glass bottles and were sterilized (30 sec at 80° C.) in a water bath heated with steam.
The sterilized samples were stored at room temperature up to 25 days. No microbiological contamination with mesophilic germs or Enterobacteriaceae was detected throughout the storage test.
Green tea catechins were analysed in the fresh and stored samples by HPLC on a C-18 column, using UV detection at 280 nm. For total catechin determination samples were treated with concentrated acetic acid and the extracts were stabilised with ascorbic acid, EDTA and acetonitrile. For free catechin determination each sample was previously spun at 14,000×g for 30 min using an Eppendorf (Dr Vaudaux A G, Binningen, C H) centrifuge 5415. The resulting supernatant was then treated as previously described. Stability and binding to phospholipids were calculated for (−)-epigallocatechin (Egc), (−)-epigallocatechin-3-gallate (Egcg), and caffeine.

[3] = green tea 0.2% + lecithin 0.05%, storage 0 d
[4] = green tea 0.2% + lecithin 0.05%, storage 2 d
[5] = green tea 0.2% + lecithin 0.05%, storage 9 d
[6] = green tea 0.2% + lecithin 0.05%, storage 13 d
[7] = green tea 0.2% + lecithin 0.05%, storage 22 d
[8] = green tea 0.2% + lecithin 0.1%, storage 0 d
[9] = green tea 0.2% + lecithin 0.1%, storage 2 d
[10] = green tea 0.2% + lecithin 0.1%, storage 9 d
[11] = green tea 0.2% + lecithin 0.1%, storage 13 d
[12] = green tea 0.2% + lecithin 0.1%, storage 22 d
[13] = green tea 0.2% + lecithin 0.2%, storage 0 d
[14] = green tea 0.2% + lecithin 0.2%, storage 2 d
[15] = green tea 0.2% + lecithin 0.2%, storage 9 d
[16] = green tea 0.2% + lecithin 0.2%, storage 13 d
[17] = green tea 0.2% + lecithin 0.2%, storage 22 d

Compound: O=C(O[C@@H]1Cc2c(O)cc(O)cc2O[C@@H]1c1ccc(O)c(O)c1)c1cc(O)c(O)c(O)c1 [Ecg, epicatechin gallate]
- binding to the lecithin (in words) [1]: interact with the added lecithin

Compound: Oc1cc(O)c2c(c1)O[C@H](c1cc(O)c(O)c(O)c1)[C@H](O)C2 [Egc, (−)-epigallocatechin]
- catechins (% recovered) [2, 3]: 100%
- catechins (% recovered) [2, 4]: 92%
- catechins (% recovered) [2, 5]: 72%
- catechins (% recovered) [2, 6]: 59%
- catechins (% recovered) [2, 7]: 42%
- catechins (% recovered) [2, 8]: 100%
- catechins (% recovered) [2, 9]: 94%
- catechins (% recovered) [2, 10]: 70%
- catechins (% recovered) [2, 11]: 57%
- catechins (% recovered) [2, 12]: 39%
- catechins (% recovered) [2, 13]: 100%
- catechins (% recovered) [2, 14]: 91%
- catechins (% recovered) [2, 15]: 64%
- catechins (% recovered) [2, 16]: 49%
- catechins (% recovered) [2, 17]: 30%
- catechins (% recovered) ([2]; green tea 0.2%, storage 0 d): 100%
- catechins (% recovered) ([2]; green tea 0.2%, storage 2 d): 93%
- catechins (% recovered) ([2]; green tea 0.2%, storage 9 d): 65%
- catechins (% recovered) ([2]; green tea 0.2%, storage 13 d): 50%
- catechins (% recovered) ([2]; green tea 0.2%, storage 22 d): 28%
- bound catechins (% recovered in pellet) [1, 3]: 1%
- bound catechins (% recovered in pellet) [1, 4]: 3%
- bound catechins (% recovered in pellet) [1, 5]: 1%
- bound catechins (% recovered in pellet) [1, 6]: 1%
- bound catechins (% recovered in pellet) [1, 7]: 0%
- bound catechins (% recovered in pellet) [1, 8]: 2%
- bound catechins (% recovered in pellet) [1, 9]: 4%
- bound catechins (% recovered in pellet) [1, 10]: 2%
- bound catechins (% recovered in pellet) [1, 11]: 2%
- bound catechins (% recovered in pellet) [1, 12]: 2%
- bound catechins (% recovered in pellet) [1, 13]: 5%
- bound catechins (% recovered in pellet) [1, 14]: 6%
- bound catechins (% recovered in pellet) [1, 15]: 5%
- bound catechins (% recovered in pellet) [1, 16]: 5%
- bound catechins (% recovered in pellet) [1, 17]: 6%
- bound catechins (% recovered in pellet) ([1]; green tea 0.2%, storage 0 d): 3%
- bound catechins (% recovered in pellet) ([1]; green tea 0.2%, storage 2 d): 0%
- bound catechins (% recovered in pellet) ([1]; green tea 0.2%, storage 9 d): 0%
- bound catechins (% recovered in pellet) ([1]; green tea 0.2%, storage 13 d): 0%
- bound catechins (% recovered in pellet) ([1]; green tea 0.2%, storage 22 d): 0%

Compound: O=C(O[C@@H]1Cc2c(O)cc(O)cc2O[C@@H]1c1cc(O)c(O)c(O)c1)c1cc(O)c(O)c(O)c1 [Egcg, (−)-epigallocatechin-3-gallate]
- catechins (% recovered) [2, 3]: 100%
- catechins (% recovered) [2, 4]: 95%
- catechins (% recovered) [2, 5]: 78%
- catechins (% recovered) [2, 6]: 68%
- catechins (% recovered) [2, 7]: 55%
- catechins (% recovered) [2, 8]: 100%
- catechins (% recovered) [2, 9]: 98%
- catechins (% recovered) [2, 10]: 82%
- catechins (% recovered) [2, 11]: 74%
- catechins (% recovered) [2, 12]: 62%
- catechins (% recovered) [2, 13]: 100%
- catechins (% recovered) [2, 14]: 99%
- catechins (% recovered) [2, 15]: 88%
- catechins (% recovered) [2, 16]: 82%
- catechins (% recovered) [2, 17]: 71%
- catechins (% recovered) ([2]; green tea 0.2%, storage 0 d): 100%
- catechins (% recovered) ([2]; green tea 0.2%, storage 2 d): 94%
- catechins (% recovered) ([2]; green tea 0.2%, storage 9 d): 67%
- catechins (% recovered) ([2]; green tea 0.2%, storage 13 d): 53%
- catechins (% recovered) ([2]; green tea 0.2%, storage 22 d): 33%
- stabilisation by lecithin during storage (in words) ([2]; storage of the green tea samples): dose-dependent stabilisation
- bound catechins (% recovered in pellet) [1, 3]: 18%
- bound catechins (% recovered in pellet) [1, 4]: 17%
- bound catechins (% recovered in pellet) [1, 5]: 21%
- bound catechins (% recovered in pellet) [1, 6]: 22%
- bound catechins (% recovered in pellet) [1, 7]: 22%
- bound catechins (% recovered in pellet) [1, 8]: 33%
- bound catechins (% recovered in pellet) [1, 9]: 30%
- bound catechins (% recovered in pellet) [1, 10]: 37%
- bound catechins (% recovered in pellet) [1, 11]: 38%
- bound catechins (% recovered in pellet) [1, 12]: 39%
- bound catechins (% recovered in pellet) [1, 13]: 46%
- bound catechins (% recovered in pellet) [1, 14]: 45%
- bound catechins (% recovered in pellet) [1, 15]: 53%
- bound catechins (% recovered in pellet) [1, 16]: 55%
- bound catechins (% recovered in pellet) [1, 17]: 59%
- bound catechins (% recovered in pellet) ([1]; green tea 0.2%, storage 0 d): 1%
- bound catechins (% recovered in pellet) ([1]; green tea 0.2%, storage 2 d): 1%
- bound catechins (% recovered in pellet) ([1]; green tea 0.2%, storage 9 d): 1%
- bound catechins (% recovered in pellet) ([1]; green tea 0.2%, storage 13 d): 2%
- bound catechins (% recovered in pellet) ([1]; green tea 0.2%, storage 22 d): 2%
- binding to the lecithin (in words) [1]: interact with the added lecithin
- percentage of bound Egcg during storage (in words) ([1]; lecithin containing green tea samples during storage): not only remained constant but rather slightly increased with time

Compound: Cn1c(=O)c2c(ncn2C)n(C)c1=O [caffeine]
- stability during storage (in words) [2]: quite stable under the chosen storage conditions

— patent publication US9265276B2, “Reducing astringency in compositions containing phenolic compounds” (Nestec S.A., priority 2008, dated 2016)
